Entries after “also recorded” stand apart in the source; their conditions may differ. Where two headings read alike, the source gives them in different places.
Experiments:
[1] = for IST: Study A, compound of Formula Ia at 10 mgA/mL
Method: Injection site toleration was measured by inspecting the patient for signs of reaction, including erythema (size); skin thickening (size), pain on palpation and edema. Table VI provides a detailed explanation of the scoring system: a score of 0 (no reaction) to 4 (severe reaction) was given for each characteristic and each injection site daily.
Compound of Formula Ia formulations were evaluated for injection site toleration (hereinafter “IST”).
Formulations were tested in groups of 4 dogs comprised of beagles and mongrels. […] Dogs were observed daily for evidence of reaction at the injection site and a score of 0-4 (see Table VI) was given for each of the following parameters: pain on injection, erythema, tissue thickening, pain on palpation and edema. Dogs were observed daily until day 5 (24 hours after the last dose).

[2] = tested on: Escherichia coli, Pseudomonas aeruginosa, Staphylococcus aureus, Candida albicans, Aspergillus niger; test: Hybrid USP/Ph. Eur. antimicrobial effectiveness test (AET); type: cell-based; conditions: for USP/Ph. Eur. requirements (initial results of preliminary screen): multidose compound of Formula Ia formulation with SBE-CD; for AET Results Ph. Eur. Criteria A: Study A, compound of Formula Ia at 10 mgA/mL, cells without ✓ print organism (time point); for Ph. Eur. criteria B: leads of Study B
Method: Preparation of Preserved Formulations. […] Antimicrobial preservatives with optimal activity at a pH outside the nominal formulation value (pH 4.4) were titrated to either 3.5 or 5.0 using 1 N HCl or 1 N NaOH. A stock solution of either 10% or 5% (weight/volume) SBE-CD containing 10 mgA/mL of the compound of Formula Ia citrate was prepared. Preservative was added to the respective formulation on a weight basis.
Antimicrobial Efficacy Testing. A hybrid USP […]/Ph. Eur. 2000 antimicrobial effectiveness test (AET) was performed, as follows: 20 mL of drug product was individually inoculated with 0.1-0.2 mL of bacterial or fungal culture, per USP/Ph. Eur. compendial requirements. The final concentration of organisms in the test sample was between 1×10^5 and 1×10^6 cfu/mL. At initial 6 hr, 24 hr, 7 day, 14 day, and 28 day time intervals, 1 mL of the inoculated product was transferred into 9 mL of a recovery diluent, that was validated to confirm neutralization of the antimicrobial preservative. One mL of the diluted sample was then transferred to a sterile petri dish and combined with 15-20 mL of an agar broth to culture the organisms. Plates were then incubated for 3 to 5 days, upon which colonies were counted. Initial organism contamination was then calculated based on dilution of the initial sample.
Generally, the USP test requirements are less stringent than Ph. Eur. requirements, which typically have an immediate bacteriocidal activity requirement. The Ph. Eur. requirements shown in Table III have either a “Criteria A” or “Criteria B” specification depending on the rate of microorganism reduction, with criteria A requiring an increased bacteriocidal rate. In order to meet the combined hybrid assay, the initial inoculum count of microorganisms needed to be reduced by the amounts listed in Table V.

[3] = tested on: Escherichia coli, Pseudomonas aeruginosa, Staphylococcus aureus, Candida albicans, Aspergillus niger; conditions: as indicated by literature; cited from earlier work
[4] = Stability measurements (accelerated stability); conditions: for ACCEPTABLE STABILITY: 10 mgA/mL compound of Formula Ia
Method: Stability Measurements. Potential lead formulations were evaluated under various accelerated stability conditions in order to assess potency and purity of compound of Formula Ia, preservative content and SBE-CD content. For example, in one accelerated stability study, potential lead formulations were placed in stability ovens to measure short-term thermal stability. […] Purity and potency assays to measure compound of Formula Ia, as well as antimicrobial preservatives and SBE-CD content, were performed using validated HPLC methodology. SBE-CD was assayed using GTP 5984.

[5] = compound of Formula Ia formulations solubilised with cyclodextrin
[6] = pH: 4.4, SBE-CD: 5%, ethanol 15%
[7] = pH: 4.4, SBE-CD: 10%, content: ethanol 15%, meta-cresol 0.3%, propylene glycol 50%, thimerosal 0.01
[8] = pH: 4.2, SBE-CD: 10%, preservative content 0.2%
[9] = preserved compound of Formula Ia/SBE-CD formulations

Sulfobutylether-βcyclodextrin [SBE-CD]
injection site toleration [1, 5]: acceptable injection site toleration

CC(O)CO (stereo not shown) [Propylene glycol]
activity against the fungi [2]: ineffective against the fungi
USP/Ph. Eur. requirements (initial results of preliminary screen) [2]: satisfied USP/Ph. Eur. requirements
activity against bacteria ([2]; with and without SBE-CD): active against bacteria only in the presence of SBE-CD
USP and Ph. Eur. criteria A or B requirements [3]: met both the USP and either Ph. Eur. criteria A or B requirements

CCO [Ethanol]
AET Results Ph. Eur. Criteria A [2, 6]: a. niger (7 d)
AET Results Ph. Eur. Criteria A [2, 7]: s. aur (6 hr)
USP/Ph. Eur. requirements (initial results of preliminary screen) [2]: satisfied USP/Ph. Eur. requirements
IST [1, 6]: Poor
IST [1, 7]: Poor
ACCEPTABLE STABILITY ([4]; pH 4.4, 5% SBE-CD): ✓
USP and Ph. Eur. criteria A or B requirements [3]: met both the USP and either Ph. Eur. criteria A or B requirements

2-hydroxypropyl-β-cyclodextrin
injection site toleration [1, 5]: acceptable injection site toleration

O=C(O)c1ccccc1 [Benzoic acid, Benzoic Acid]
AET Results Ph. Eur. Criteria A [2, 8]: c. alb (7 d); also recorded: s. aur (6, 24 hr)
reducing the microorganisms ([2]; after 7 days): ineffective
Ph. Eur. criteria B [2]: met criteria B
IST [1, 8]: Poor
pain on injection ([1]; preserved compound of Formula Ia formulation): moderate to severe pain on injection
injection site toleration [1, 9]: poor IST results
loss of preservative ([4]; over 12 weeks at 70° C. storage): no detectable loss
ACCEPTABLE STABILITY ([4]; pH 4.2, 10% SBE-CD): ✓
USP and Ph. Eur. criteria A or B requirements [3]: met both the USP and either Ph. Eur. criteria A or B requirements

C[CH2][Hg][S]c1ccccc1C(=O)[O-].[Na+] [Thimerosal]
Ph. Eur. criteria B [2]: met criteria B
USP/Ph. Eur. requirements (initial results of preliminary screen) [2]: satisfied USP/Ph. Eur. requirements
IST [1, 7]: Good
injection site toleration [1, 9]: good injection site toleration
stability in the formulation (in words) [4]: commercially undesirable
Stability ([4]; Study A, pH: 4.4, SBE-CD: 10%, thimerosal 0.01, compound of Formula Ia at 10 mgA/mL): 1 wk/70
preservative remained in the formulation ([4]; after 1 week at 70° C. storage): 30%
loss of preservative ([4]; after 6 weeks, 70° C. storage): complete loss
USP and Ph. Eur. criteria A or B requirements [3]: met both the USP and either Ph. Eur. criteria A or B requirements

Source: patent US8183230B2, “Antimicrobial preservatives to achieve multi-dose formulation using beta-cyclodextrins for liquid dosage forms” (priority 2004, dated 2012)
